For 15 molecules, inhibition and IC50 results are on record in ChEMBL document CHEMBL1130635, “4-Phenyl-4-oxo-butanoic acid derivatives inhibitors of kynurenine 3-hydroxylase” (Bioorg Med Chem Lett, 1998).

Series [1] has as its target Kynurenine 3-monooxygenase (Rattus norvegicus) (UniProt O88867). Kind of series: Inhibition of rat liver KYN 3-OHase at 100 uM concentration.
The target of series [2] is T1, Kynurenine 3-monooxygenase (Rattus norvegicus, UniProt O88867). Kind of series: Inhibition of rat liver KYN 3-OHase.
T1 sequence (O88867 whole entry): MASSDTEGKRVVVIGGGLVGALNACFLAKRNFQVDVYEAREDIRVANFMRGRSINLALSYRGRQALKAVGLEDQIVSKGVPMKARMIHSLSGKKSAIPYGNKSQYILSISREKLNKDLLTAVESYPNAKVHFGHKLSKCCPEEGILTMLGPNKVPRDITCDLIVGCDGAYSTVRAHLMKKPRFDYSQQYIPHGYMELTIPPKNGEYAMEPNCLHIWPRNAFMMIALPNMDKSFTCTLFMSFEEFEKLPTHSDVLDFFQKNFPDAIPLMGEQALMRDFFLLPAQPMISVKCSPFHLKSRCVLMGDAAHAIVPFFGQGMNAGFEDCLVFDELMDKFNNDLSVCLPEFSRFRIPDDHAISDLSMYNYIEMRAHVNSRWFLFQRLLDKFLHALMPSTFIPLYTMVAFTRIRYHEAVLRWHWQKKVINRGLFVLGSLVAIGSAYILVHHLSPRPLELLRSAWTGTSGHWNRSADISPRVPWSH
The target of series [3] is T1, Kynurenine 3-monooxygenase. Kind of series: Inhibition of rat brain KYN 3-OHase.
Series [4] concerns the target T1, Kynurenine 3-monooxygenase. Put plainly: Compound was evaluated for the inhibition of rat liver KYN 3-OHase.
The target in series [5] is Kynurenine/alpha-aminoadipate aminotransferase, mitochondrial (Rattus norvegicus) (UniProt Q64602). Kind of series: Compound was evaluated for inhibition of rat liver KAT at 100 uM.
Sequence of Kynurenine/alpha-aminoadipate aminotransferase, mitochondrial (Rattus norvegicus) (Q64602 30-425 limits assumed): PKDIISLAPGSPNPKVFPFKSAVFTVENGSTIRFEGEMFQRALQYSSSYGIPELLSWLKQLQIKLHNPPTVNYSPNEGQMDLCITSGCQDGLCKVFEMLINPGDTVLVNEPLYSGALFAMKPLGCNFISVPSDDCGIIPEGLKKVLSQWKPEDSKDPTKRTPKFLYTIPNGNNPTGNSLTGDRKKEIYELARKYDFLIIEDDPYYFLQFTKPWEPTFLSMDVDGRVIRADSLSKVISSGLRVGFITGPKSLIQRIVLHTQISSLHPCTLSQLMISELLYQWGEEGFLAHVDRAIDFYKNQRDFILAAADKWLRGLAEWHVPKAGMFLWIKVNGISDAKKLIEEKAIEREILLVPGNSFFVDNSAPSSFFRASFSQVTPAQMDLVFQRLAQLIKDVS
Series [6] deals with T2, Kynureninase (Rattus norvegicus) (UniProt P70712).
T2 sequence (whole entry): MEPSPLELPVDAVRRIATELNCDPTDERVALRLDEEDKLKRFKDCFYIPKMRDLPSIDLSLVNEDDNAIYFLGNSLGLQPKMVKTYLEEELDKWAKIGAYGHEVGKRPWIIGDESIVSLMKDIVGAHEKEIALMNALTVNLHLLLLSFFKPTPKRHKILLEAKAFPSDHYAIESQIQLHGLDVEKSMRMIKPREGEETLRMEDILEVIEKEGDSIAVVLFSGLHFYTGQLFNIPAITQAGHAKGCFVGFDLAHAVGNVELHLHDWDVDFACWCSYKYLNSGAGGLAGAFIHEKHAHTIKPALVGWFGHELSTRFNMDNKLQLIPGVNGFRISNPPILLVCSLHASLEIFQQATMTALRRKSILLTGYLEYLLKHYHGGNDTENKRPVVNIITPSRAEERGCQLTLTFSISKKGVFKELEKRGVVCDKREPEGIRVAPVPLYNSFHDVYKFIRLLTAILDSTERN
Kind of series: Compound was evaluated for inhibition of rat liver KYN ase at 100 uM.

The target of series [7] is T3, FMO (Mus musculus, UniProt Q64133+Q8BW75).
T3 sequence (Q8BW75 whole entry): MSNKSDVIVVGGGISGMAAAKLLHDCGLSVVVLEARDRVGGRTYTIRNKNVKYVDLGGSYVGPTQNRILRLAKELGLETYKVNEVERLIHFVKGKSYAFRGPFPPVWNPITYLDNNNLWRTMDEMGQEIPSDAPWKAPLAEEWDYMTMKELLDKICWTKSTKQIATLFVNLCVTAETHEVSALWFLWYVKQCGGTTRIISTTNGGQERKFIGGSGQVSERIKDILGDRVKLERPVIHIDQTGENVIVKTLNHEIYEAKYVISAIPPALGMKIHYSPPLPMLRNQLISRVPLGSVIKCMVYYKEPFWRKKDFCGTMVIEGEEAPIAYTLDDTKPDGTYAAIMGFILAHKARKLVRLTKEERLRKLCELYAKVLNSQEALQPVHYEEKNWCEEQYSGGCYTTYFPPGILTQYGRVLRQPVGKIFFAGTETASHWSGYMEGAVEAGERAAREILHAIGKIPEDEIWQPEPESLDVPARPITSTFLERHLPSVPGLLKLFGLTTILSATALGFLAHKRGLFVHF
T3 sequence (Q64133 whole entry): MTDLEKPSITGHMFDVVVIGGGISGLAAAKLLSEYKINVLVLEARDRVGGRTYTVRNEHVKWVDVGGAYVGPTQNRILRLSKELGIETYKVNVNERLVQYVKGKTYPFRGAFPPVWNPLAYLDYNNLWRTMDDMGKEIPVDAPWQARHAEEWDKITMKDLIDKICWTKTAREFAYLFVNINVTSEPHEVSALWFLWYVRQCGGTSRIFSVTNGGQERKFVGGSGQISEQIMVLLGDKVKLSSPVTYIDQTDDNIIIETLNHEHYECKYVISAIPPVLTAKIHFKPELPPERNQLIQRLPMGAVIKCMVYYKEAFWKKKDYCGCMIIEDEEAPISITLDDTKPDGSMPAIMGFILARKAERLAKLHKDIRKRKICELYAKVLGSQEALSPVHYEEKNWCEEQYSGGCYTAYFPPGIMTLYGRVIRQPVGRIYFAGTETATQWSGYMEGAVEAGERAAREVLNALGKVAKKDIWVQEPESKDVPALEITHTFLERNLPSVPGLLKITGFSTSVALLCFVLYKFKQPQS
Put plainly: Compound was evaluated for inhibition of FMO. at 100 uM. It is filed as protein assay.

For series [8], the system named is Pseudomonas fluorescens. Kind of series: Compound was evaluated for inhibition of PHBH. at 100 uM.
For series [9], the system named is Pseudomonas fluorescens. Kind of series: Compound was evaluated for inhibition of PHBH at 100 uM concentration.
Series [10] addresses Kynurenine/alpha-aminoadipate aminotransferase, mitochondrial (Rattus norvegicus) (UniProt Q64602). Put plainly: Compound was evaluated for inhibition of rat liver KAT at 100 uM concentration.
In series [11] the target is T2, Kynureninase (Rattus norvegicus). Put plainly: Compound was evaluated for inhibition of rat liver KYN ase at 100 uM concentration.
The target of series [12] is T3, FMO. Kind of series: Compound was evaluated for inhibition of FMO at 100 uM concentration. Format: protein assay.
Series [13] addresses Kynurenine/alpha-aminoadipate aminotransferase, mitochondrial (Rattus norvegicus) (UniProt Q64602). Kind of series: Compound was evaluated for inhibition of rat liver KAT at 100 uM concentration.

The structures appear in SMILES notation.

Sequence of Kynurenine 3-monooxygenase (Rattus norvegicus) (O88867 whole entry, looked up): as the sequence (O88867 whole entry) above

By inhibition is commonly meant how much of the control response was suppressed. Lower therefore signals a response near the control. Take `CC(N)(CC(=O)c1ccc(Cl)c(Cl)c1)C(=O)O` (centres undefined): the inhibition in series [1] worked out at 35%.

The IC50 is the concentration needed to halve the response being measured. A higher IC50 goes with weaker potency in that assay. In the case of `O=C(O)C(=O)/C=C(\O)c1ccc(Cl)c(Cl)c1`, the IC50 was 6.4 µM in [2] and 0.95 µM in series [3]. Consider `CC(C)(CC(=O)c1ccc(Cl)c(Cl)c1)C(=O)O`, for which the inhibition in series [1] turned out to be 21%.

`NC(CC(=O)c1ccc(Cl)c(Cl)c1)C(=O)O` (centres undefined) gave an IC50 in [4] of 0.33 µM. Also, the inhibition stood at 14% in series [5], 10% in series [6] and 2% in the series on Pseudomonas fluorescens [8]. At FMO [7], this molecule displayed an inhibition at 100 µM of 8.5%. In the case of `O=C(O)C(=O)/C=C(\O)c1ccc(F)c(F)c1`, the IC50 in series [2] amounted to 1.2 µM; in [3], 0.44 µM. The corresponding values for `C/C(=C\C(=O)c1ccc(Cl)c(Cl)c1)C(=O)O` are 11.3 µM and 2.2 µM. Molecule `NCCC(=O)c1ccc(Cl)c(Cl)c1` yielded an inhibition in series [1] of 2%. Regarding `O=C(CC(O)C(=O)O)c1cccc(Cl)c1` (centres undefined), the IC50 in series [2] stood at 1.1 µM; in series [3] it was 0.48 µM.

Consider `O=C(CC(Cc1ccccc1)C(=O)O)c1ccc(Cl)c(Cl)c1` (centres undefined), for which the results for the inhibition (in the series with Pseudomonas fluorescens [9]; in series [10]; in [11]) were 8%, 8% and 0%, respectively. The same molecule yielded an inhibition at 100 µM at FMO [12] of 16%. `O=C(CC(C(=O)O)c1ccccc1)c1ccc(Cl)c(Cl)c1` (centres undefined): the IC50 in series [2] was determined as 19.5 µM.

On to `O=C(CC(O)C(=O)O)c1ccc(Cl)c(Cl)c1` (centres undefined), for which the inhibition with Pseudomonas fluorescens [9] is 29%; in series [13] it was 23%; in series [11], 0%. For `COc1ccc(C(=O)CC(O)C(=O)O)cc1` (centres undefined), the inhibition in series [1] came out at 7%. Turning to `O=C(CC(Cl)C(=O)O)c1ccc(Cl)c(Cl)c1` (centres undefined), the half-inhibitory concentration (IC50) came out at 14.8 µM in series [2] and 2.2 µM in series [3]. As for `CC(O)(CC(=O)c1ccc(Cl)c(Cl)c1)C(=O)O` (centres undefined), the inhibition in series [1] stood at 43%. With `O=C(CC1(C(=O)O)CC1)c1ccc(Cl)c(Cl)c1`, the inhibition in series [1] stood at 20%.
